Assay results from patent US20050209278A1, “Piperidinyl- and piperazinyl-sulfonylmethyl hydroxamic acids and their use as protease inhibitors” (priority 2002, published 2005).
Structures can show the parent of a compound that is named as a salt.

Target: T1, MMP-2 (Homo sapiens, UniProt P08253)
T1 construct: made in house; host or cells: MMP-2-transfected p2AHT2 cells
T1 sequence (P08253 110-660): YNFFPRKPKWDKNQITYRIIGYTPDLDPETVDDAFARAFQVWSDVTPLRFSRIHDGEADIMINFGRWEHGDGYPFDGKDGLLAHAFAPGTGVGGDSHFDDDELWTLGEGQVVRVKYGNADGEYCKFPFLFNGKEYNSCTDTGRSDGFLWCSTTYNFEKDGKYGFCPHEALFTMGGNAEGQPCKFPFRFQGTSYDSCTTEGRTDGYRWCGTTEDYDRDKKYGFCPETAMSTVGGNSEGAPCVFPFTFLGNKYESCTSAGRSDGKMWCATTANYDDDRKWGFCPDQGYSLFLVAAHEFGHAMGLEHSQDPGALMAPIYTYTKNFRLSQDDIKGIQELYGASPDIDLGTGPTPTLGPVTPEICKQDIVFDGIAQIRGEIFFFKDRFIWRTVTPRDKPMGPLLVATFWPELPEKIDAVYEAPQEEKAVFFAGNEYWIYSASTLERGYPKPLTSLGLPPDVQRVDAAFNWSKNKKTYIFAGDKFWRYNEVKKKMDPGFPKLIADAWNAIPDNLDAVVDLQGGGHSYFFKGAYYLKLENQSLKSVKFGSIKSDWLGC
Test: In vitro MMP inhibition, IC50 determination (fluorogenic substrate I)
Type: biochemical
Details: values in parenthesis; 4 μM substrate I; room temperature
Experimental: Several hydroxamic acids and salts thereof were analyzed in in vitro assays to determine their ability to inhibit the MMP cleavage of peptide substrates. […] and IC50 constants were calculated from the assayed hydroxamic acid-MMP interactions.
Human recombinant MMP-1, MMP-2, MMP-9, MMP-13, and MMP-14 were used in this assay. All enzymes were prepared in Assignee's laboratories following usual laboratory procedures. Protocols for the preparation and use of these enzymes are available in the scientific literature. See, e.g., Enzyme Nomenclature (Academic Press, San Diego, Calif., 1992) (and the citations therein). See also, Freije et al., “Molecular cloning and expression of collagenase-3, a novel human matrix metalloproteinase produced by breast carcinomas,” J Biol. Chem., 269(24), 16766-16773 (1994).
The MMP-2 proenzyme was purified by gelatin Sepharose chromatography from MMP-2-transfected p2AHT2 cells provided by Dr. Gregory Goldberg of Washington University (St. Louis, Mo.).
All MMPs were activated using 4-aminophenylmercuric acetate (“APMA”, Sigma Chemical, St. Louis, Mo.) or trypsin. MMP-9 also was activated using human recombinant MMP-3 (purified in Assignee's laboratory following standard cloning and purification techniques).
Two fluorogenic, methoxycoumarin-containing polypeptide substrates were used in the MMP inhibition assays: [drawing 427] Here, “Dpa” is 3-(2,4-dinitrophenyl)-L-2,3-diaminopropionyl group, and “MCA” is 7-methoxycoumarin-4-yl acetyl. Substrate (I) was purchased from Baychem (Redwood City, Calif.), and substrate II was prepared Assignee's laboratory. Substrate I was used in the IC50 determination assays, while substrate II was used in the Ki determination assays. In the absence of MMP inhibitory activity, either substrate is cleaved at the Gly-Leu peptide bond. This cleavage separates the highly fluorogenic peptide from the 2,4-dinitrophenyl quencher, thus resulting in increase of fluorescent intensity.
The stock solutions of the assayed hydroxamic acids (or salts thereof) were prepared in 1% dimethyl sulfoxide (DMSO). These stock solutions were diluted in Buffer A (100 mM Tris-HCl, 100 mM NaCl, 10 mM CaCl2, 0.05% polyoxyethylene 23 lauryl ether, pH 7.5) to obtain solutions with different hydroxamic acid concentrations, i.e., assay solutions with different concentrations of the assayed MMP inhibitory compound. The experiment controls contained the same amount of Buffer A/DMSO as the assayed sample, but contained no hydroxamic acid (or salt thereof).
The assays from which the IC50 determinations were made were performed as follows. The MMPs were activated with either trypsin or APMA (4-aminophenylmercuric acetate, Sigma Chemical, St. Louis, Mo.). The assayed hydroxamic acid samples were incubated in Microfluor™ White Plates (Dynatech, Chantilly, Va.) and analyzed on a Perkin Elmer L550 plate reader (Norwalk, Conn.). The excitation wavelength was 328 nm, and the emission wavelength—415 nm. All samples (assayed hydroxamic acids and controls) were incubated in separate plates at room temperature in the presence of 4 μM of MMP substrate (I). As stated in the previous paragraph, samples containing varying concentrations of the same assayed hydroxamic acid were prepared. Inhibition was measured as a reduction in fluorescent intensity as a function of MMP inhibitor concentration.
The above protocols were used to determine IC50 constants and Ki values for the compounds in Examples 1-27 above. All values in Table 2 are given in nM units. The IC50 measurements are in parenthesis.

Row | SMILES | IC50 [nM]
1 | CCCCc1ccc(N2CCN(S(=O)(=O)C3(C(=O)NO)CCN(CCOC)CC3)CC2)cc1 [Example 5, 4-{[4-(4-butylphenyl)piperazin-1-yl]sulfonyl}-N-hydroxy-1-(2-methoxyethyl)piperidine-4-carboxamide Dihydrochloride] | < 0.1
2 | CCCCCc1ccc(C2CCN(S(=O)(=O)C3(C(=O)NO)CCN(CCOC)CC3)CC2)cc1 [Example 15, N-hydroxy-1-(2-methoxyethyl)-4-{[4-(4-pentylpheyl)piperidin-1-yl]sulfonyl}piperidine-4-carboxamide Hydrochloride] | 0.1
